Assay results taken from patent US6515025B2, “Use of ethynyl alanine amino diol compounds to inhibit enzymatic conversion of angiotensinogen to angiotensin I” (Pharmacia Corporation, priority 1991, dated 2003).
Like-named read-outs stand apart in the source and are kept apart here.

What was measured:
[1] = Oral bioavailability studies in marmosets (plasma concentration by bioassay); assay type: in vivo; settings: plasma
Method: The bioavailability in marmosets and dogs was determined by sampling the blood via the femoral vein at various time points after administering the renin inhibitor compounds of the invention in polyethylene glycol 400 at an intragastric dose of 10 mg/kg or at an intravenous dose of 1 mg/kg. Compound concentration in plasma was determined using the bioassay technique described below. The percent bioavailability was calculated by dividing the area under the concentration-vs.-time curve obtained from the intragastric experiment by the area under the concentration-vs.-time curve obtained from the intravenous experiment (adjusting for different doses), and multiplying the result by 100%. The bioavailibility of Example 1 compound is 27% in marmosets and 33% in dogs.
Renin inhibitor plasma concentrations were determined by a bioassay. The plasma samples were extracted with acetonitrile and the extract was evaporated to dryness under nitrogen. Residue was dissolved in 4% bovine serum albumin containing 0.9% NaCl and 5% EDTA. The dissolved residue (0.1 ml) was incubated with a reaction mixture containing human plasma (0.12 ml), 5% phenylmethysulfonylfluoride (1.2 ul), 10% neomycin (2.4 ul), 0.5 M TES buffer (pH 7.4, 24 ul), and 0.6 mU/ml recombinant human renin (1000 U/mg, 50 ul) at 37° C. for 90 minutes. The renin activity was determined by a standard angiotensin I radioimmunoassay (New England Nuclear Corp.). The amount of test compound in the plasma was determined by comparing the extent of inhibition of renin activity with that produced by a known amount of test compound added to plasma and analyzed above.

[2] = target: T1, renin (Marmoset Monkey plasma) (Callithrix jacchus, UniProt Q9TSZ1); test: Renin inhibitor species specificity, marmoset plasma renin activity; assay type: biochemical
T1 construct: the animal plasma is the source of both the renin substrate and the renin enzyme; from tissue; host or cells: pooled marmoset plasma
T1 sequence (Q9TSZ1 61-400): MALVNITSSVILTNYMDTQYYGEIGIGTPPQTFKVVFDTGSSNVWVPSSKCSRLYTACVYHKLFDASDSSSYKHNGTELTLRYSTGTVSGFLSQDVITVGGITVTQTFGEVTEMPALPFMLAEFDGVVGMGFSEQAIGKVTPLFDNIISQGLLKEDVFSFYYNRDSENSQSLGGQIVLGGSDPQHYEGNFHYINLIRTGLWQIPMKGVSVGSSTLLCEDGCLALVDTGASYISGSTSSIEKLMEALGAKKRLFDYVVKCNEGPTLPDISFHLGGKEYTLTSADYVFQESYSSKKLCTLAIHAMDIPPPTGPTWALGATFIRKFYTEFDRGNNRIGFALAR
Method: Blood was collected in a 10 ml Becton Dickinson vacutainer tube with 0.1 ml of 15% EDTA (K3) solution (15 mg) from normal animals or high renin animals; i.e., those pre-treated with 5 mg/kg of Lasix® intramuscularly 2 times within a 6 hour interval 24 hours prior to bleeding. The blood was then centrifuged at 2500 RPM for 20 minutes and the plasma from the various species respectively pooled, aliquoted and stored in the freezer. The human plasma source was taking a prescription of an angiotensin converting enzyme inhibitor.
The plasma renin activity assay is a modification of the human renin inhibition test in that the animal plasma is the source of both the renin substrate and the renin enzyme. In a total volume of 0.1 ml, 90 mM Tris-acetate buffer, pH 7.5, 12 mM sodium EDTA, 0.012 mg/ml neomycin sulfate, 0.9 mg/ml bovine serum albumin, 1.61 mM phenylmethyl sulfonyl fluoride, 4 mM 8-hydroxyquinoline and 0.09 ml of the animal or human plasmas were incubated for 2 hours at 37° C. in a shaking water bath or at 4° C. in an ice bath in the presence or absence of renin inhibitors. The produced angiotensin I was determined by radioimmunoassay (New England Nuclear kit).
The amount of angiotensin I generated during the 2 hours at 4° C. was usually less than 5% of that activity produced at 37° C.; however, the 4° C. background values were nevertheless subtracted from the 37° C. ones for the 100% activity values. The renin inhibitors were assayed in duplicate using 5 concentrations and the data is expressed as a percent of the 100% total renin activity.

[3] = marmoset, iv, 1 mg/kg, marmoset, IV at 1 mg/kg, Test Run D table, read-out: Plasma Concentrations, Mean ± SE
[4] = marmoset, iv, 1 mg/kg, marmoset, IV at 1 mg/kg, Test Run C, individual animals, read-out: Plasma Concentrations
[5] = marmoset, iv, 1 mg/kg, marmoset, IV at 1 mg/kg, Test Run D, individual animals, read-out: Plasma Concentrations
[6] = marmoset, oral, 10 mg/kg, marmoset, IG at 10 mg/kg, Test Run B, read-out: Plasma Concentrations, Mean ± SE
[7] = marmoset, oral, 10 mg/kg, marmoset, IG at 10 mg/kg, Test Run A, individual animals, read-out: Plasma Concentrations
[8] = marmoset, oral, 10 mg/kg, marmoset, IG at 10 mg/kg, Test Run B, individual animals, read-out: Plasma Concentrations

**Q.** Which results are given for `C#CC[C@H](NC(=O)C(CC(=O)N(C)CCN(C)C)Cc1ccccc1)C(=O)NC(CC1CCCCC1)[C@@H](O)C(O)CC(C)C` (relative stereo) [Example 1, N1-[1R*-[[[1S,1R*-(cyclohexylmethyl)-2S*,3R*-dihydroxy-5-methylhexyl]amino]carbonyl]-3-butynyl]-N4-[2-(dimethylamino)ethyl]-N4-methyl-2S*-(phenylmethyl)butanediamide]?
**A.** concentration at 2 h [1, 3]: 1240 ± 271 ng/mL; concentration at 3 h [1, 3]: 578 ± 90 ng/mL; concentration at 4 h [1, 3]: 691 ± 160 ng/mL; concentration at 6 h [1, 3]: 176 ± 31 ng/mL; concentration at 2 min [1, 4]: 13700 ng/mL; concentration at 30 min [1, 4]: 5860 ng/mL; concentration at 1 h [1, 4]: 3090 ng/mL; concentration at 3 h [1, 4]: 486 ng/mL; concentration at 6 h [1, 4]: 264 ng/mL; concentration at 2 min [1, 5]: 4200 ng/mL; concentration at 30 min [1, 5]: 1950 ng/mL; concentration at 2 h [1, 5]: 554 ng/mL; concentration at 6 h [1, 5]: 95 ng/mL; concentration at 30 min [1, 6]: 4990 ± 1750 ng/mL; concentration at 1 h [1, 6]: 3840 ± 1820 ng/mL; concentration at 2 h [1, 6]: 3960 ± 2000 ng/mL; concentration at 3 h [1, 6]: 4510 ± 939 ng/mL; concentration at 4 h [1, 6]: 3360 ± 1730 ng/mL; concentration at 5 h ([1]; marmoset, oral, 10 mg/kg, marmoset, IG at 10 mg/kg, 5 hr, Test Run B, read-out: Plasma Concentrations, Mean ± SE): 2460 ± 1170 ng/mL; concentration at 6 h [1, 6]: 3430 ± 457 ng/mL; concentration at 8 h [1, 6]: 2610 ± 400 ng/mL; concentration at 30 min [1, 7]: 9860 ng/mL; concentration at 1 h [1, 7]: 1340 ng/mL; concentration at 2 h [1, 7]: 1560 ng/mL; concentration at 3 h [1, 7]: 7050 ng/mL; concentration at 6 h [1, 7]: 4910 ng/mL; concentration at 8 h [1, 7]: 3570 ng/mL; concentration at 30 min [1, 8]: 1340 ng/mL; concentration at 6 h [1, 8]: 2860 ng/mL; concentration at 8 h [1, 8]: 1800 ng/mL; bioavailability ([1]; marmoset, oral, marmosets, IG 10 mg/kg vs IV 1 mg/kg): 27%; half-life ([1]; monkey, marmosets, read-out: terminal half-life (converted)): 1.5 h; Vd ([1]; monkey, marmosets, read-out: volume of distribution): 0.2 L/kg; % of Total Renin Activity ([2]; 0.25 nM): 94%; % of Total Renin Activity ([2]; 1 nM): 75%; % of Total Renin Activity ([2]; 4 nM): 42%; % of Total Renin Activity ([2]; 16 nM): 11%
